Assay results: ChEMBL document CHEMBL5518164, “Membrane-permeable tenofovir-di- and monophosphate analogues” (Eur J Med Chem, 2024)
The source made the active and inactive calls. No cut-off for these calls is given here.

Columns and labels:
[1] = system: Human immunodeficiency virus; experiment: Substrate activity at HIV reverse transcriptase assessed as elongation of primer at 250 uM incubated for 30 mins in presence of primer/template mixture by primer extension assay based fluorescence analysis
[2] = target: T1, DNA polymerase subunit gamma-1 (Homo sapiens) (UniProt P54098); experiment: Substrate activity at human DNA polymerase gamma assessed as elongation of primer at 250 uM incubated for 120 mins in presence of primer/template mixture by primer extension assay based fluorescence analysis
T1 sequence (whole entry): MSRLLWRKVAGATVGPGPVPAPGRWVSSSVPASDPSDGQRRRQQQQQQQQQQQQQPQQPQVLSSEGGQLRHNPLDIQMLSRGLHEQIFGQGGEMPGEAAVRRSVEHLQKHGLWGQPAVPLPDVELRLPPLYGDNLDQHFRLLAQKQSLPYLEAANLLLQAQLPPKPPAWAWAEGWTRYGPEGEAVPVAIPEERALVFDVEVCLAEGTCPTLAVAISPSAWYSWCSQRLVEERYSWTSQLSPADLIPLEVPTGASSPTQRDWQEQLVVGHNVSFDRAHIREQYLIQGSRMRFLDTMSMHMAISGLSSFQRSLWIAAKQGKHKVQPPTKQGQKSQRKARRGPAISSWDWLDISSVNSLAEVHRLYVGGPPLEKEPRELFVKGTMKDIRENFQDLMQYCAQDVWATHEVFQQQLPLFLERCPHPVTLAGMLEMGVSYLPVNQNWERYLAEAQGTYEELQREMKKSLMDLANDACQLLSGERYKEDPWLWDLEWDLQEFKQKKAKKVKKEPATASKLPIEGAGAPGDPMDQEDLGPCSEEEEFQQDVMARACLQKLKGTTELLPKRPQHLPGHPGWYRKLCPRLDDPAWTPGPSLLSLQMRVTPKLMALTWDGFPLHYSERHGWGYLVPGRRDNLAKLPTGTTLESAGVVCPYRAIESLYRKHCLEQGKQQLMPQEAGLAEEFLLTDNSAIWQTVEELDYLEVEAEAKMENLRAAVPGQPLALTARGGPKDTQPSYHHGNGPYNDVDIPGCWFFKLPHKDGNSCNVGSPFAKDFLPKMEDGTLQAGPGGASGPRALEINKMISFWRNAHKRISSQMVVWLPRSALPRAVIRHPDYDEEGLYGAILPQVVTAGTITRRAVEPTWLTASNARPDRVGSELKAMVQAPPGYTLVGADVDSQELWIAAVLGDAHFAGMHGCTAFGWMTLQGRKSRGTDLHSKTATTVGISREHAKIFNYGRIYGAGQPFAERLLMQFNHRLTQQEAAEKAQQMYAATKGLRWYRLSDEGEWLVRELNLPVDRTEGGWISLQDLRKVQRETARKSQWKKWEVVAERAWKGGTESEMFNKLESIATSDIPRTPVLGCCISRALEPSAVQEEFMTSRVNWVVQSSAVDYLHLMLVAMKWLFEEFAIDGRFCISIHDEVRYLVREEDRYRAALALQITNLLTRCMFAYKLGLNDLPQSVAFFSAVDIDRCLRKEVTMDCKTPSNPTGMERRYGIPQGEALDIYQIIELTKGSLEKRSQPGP

[3] = system: Human immunodeficiency virus; experiment: Substrate activity at HIV reverse transcriptase assessed as elongation of primer at 250 uM incubated for 30 mins in presence of primer/template mixture and dNTPs by primer extension assay based fluorescence analysis
[4] = system: Human immunodeficiency virus; experiment: Substrate activity at HIV reverse transcriptase assessed as n+1 band formation incubated for 30 mins in presence of primer/template mixture and dNTPs by primer extension assay based fluorescence analysis
[5] = Half life of the compound in heparin-stabilized human plasma by HPLC analysis; assay type: ADME, cell-free
[6] = Half life of the compound in citrate-containing human plasma by HPLC analysis; assay type: ADME, cell-free
[7] = Half life of the compound in phosphate buffer saline at pH 7.3 by RP18-HPLC analysis; assay type: ADME
[8] = Selectivity index, ratio of CC50 for cytotoxicity against human CEM cells to EC50 for antiviral activity against HIV-2 ROD infected in thymidine kinase deficient human CEM cells; assay type: toxicity, cell-based; conditions: read-out: Ratio CC50/EC50
[9] = system: Human immunodeficiency virus 1; experiment: Antiviral activity against HIV-1 HE infected in wild type human CEM/0 cells assessed as inhibition of virus-induced giant cell formation incubated for 4 to 5 days by light microscopy; assay type: functional, organism-based; conditions: Human immunodeficiency virus 1, HE, CCRF-CEM
[10] = Lipophilicity of the compound assessed as retention time by RP-HPLC analysis; assay type: physicochemical
[11] = system: Human immunodeficiency virus 2; experiment: Antiviral activity against HIV-2 ROD infected in wild type human CEM/0 cells assessed as inhibition of virus-induced giant cell formation incubated for 4 to 5 days by light microscopy; assay type: functional, organism-based; conditions: Human immunodeficiency virus 2, ROD, CCRF-CEM
[12] = Cytotoxicity against human CEM cells assessed as inhibition of cell proliferation; assay type: toxicity, cell-based, CCRF-CEM
[13] = system: Human immunodeficiency virus 2; experiment: Antiviral activity against HIV-2 ROD infected in thymidine kinase deficient human CEM cells assessed as inhibition of virus-induced giant cell formation incubated for 4 to 5 days by light microscopy; assay type: functional, organism-based; conditions: Human immunodeficiency virus 2, ROD, CCRF-CEM
[14] = Half life of the compound in human CEM/0 cell extracts by RP18-HPLC analysis; assay type: ADME, CCRF-CEM
[15] = Prodrug conversion of the compound in phosphate buffer saline assessed as (R)-9-(2-(phosphonomethoxy)propyl)adenine formation by measuring half life at pH 7.3 by RP18-HPLC analysis; assay type: ADME
[16] = Drug hydrolysis in phosphate buffer saline incubated for 600 hrs at pH 7.3 by RP18-HPLC analysis; assay type: physicochemical; conditions: read-out: Drug degradation
[17] = Drug hydrolysis in phosphate buffer saline incubated for 500 hrs at pH 7.3 by RP18-HPLC analysis; assay type: physicochemical; conditions: read-out: Drug degradation
[18] = Prodrug conversion of the compound in phosphate buffer saline assessed as (R)-9-(2-(phosphonomethoxy)propyl)adenine formation by measuring half life in presence of pig liver esterase at pH 7.3 by RP18-HPLC analysis; assay type: ADME, Sus scrofa
[19] = system: Human immunodeficiency virus; experiment: Substrate activity at HIV reverse transcriptase assessed as full elongation of primer by measuring n+5 band formation incubated for 30 mins in presence of primer/template mixture and dNTPs by primer extension assay based fluorescence analysis
[20] = target: T1, DNA polymerase subunit gamma-1 (Homo sapiens); experiment: Substrate activity at human DNA polymerase gamma assessed as elongation of primer at 250 uM incubated for 120 mins in presence of primer/template mixture and dNTPs by primer extension assay based fluorescence analysis
[21] = system: Human immunodeficiency virus; experiment: Substrate activity at HIV reverse transcriptase assessed as n+1 band formation incubated for 30 mins in presence of primer/template mixture by primer extension assay based fluorescence analysis
[22] = system: Human immunodeficiency virus; experiment: Inhibition of HIV reverse transcriptase assessed as inhibition of elongation of primer at 25000 uM incubated for 30 mins in presence of primer/template mixture and dNTPs by primer extension assay based fluorescence analysis
[23] = system: Human immunodeficiency virus; experiment: Inhibition of HIV reverse transcriptase assessed as inhibition of elongation of primer at 25000 uM incubated for 30 mins in presence of primer/template mixture and 250 uM dNTPs by primer extension assay based fluorescence analysis
[24] = system: Human immunodeficiency virus; experiment: Substrate activity at HIV reverse transcriptase assessed as n+1 band formation incubated for 30 mins in presence of primer/template mixture and 2.6 fold excess of dNTPs by primer extension assay based fluorescence analysis
[25] = Half life of the compound in phosphate buffer saline in presence of pig liver esterase at pH 7.3 by RP18-HPLC analysis; assay type: ADME, Sus scrofa

SMILES | half-life [7] | selectivity ratio [8] | EC50 [9] | Retention_time [10] | EC50 [11] | CC50 [12] | EC50 [13] | half-life [14] | further results
C[C@H](Cn1cnc2c(N)ncnc21)OCP(=O)(O)OP(=O)(O)O | – | – | – | – | – | – | – | – | Activity [1]: Active; Activity [2]: inactive; Activity [3]: Active
Nc1ncnc2c1ncn2[C@H]1C[C@H](O)[C@@H](COP(=O)(O)OP(=O)(O)OP(=O)(O)O)O1 | – | – | – | – | – | – | – | – | Activity [4]: Active
CC(C)OC(=O)[C@H](C)N[P@](=O)(CO[C@H](C)Cn1cnc2c(N)ncnc21)Oc1ccccc1.CC(C)OC(=O)[C@H](C)N[P@](=O)(CO[C@H](C)Cn1cnc2c(N)ncnc21)Oc1ccccc1.O=C(O)/C=C/C(=O)O [TENOFOVIR ALAFENAMIDE FUMARATE] | – | – | – | – | – | – | – | – | half-life [5]: 90 min; half-life [6]: 90 min
CCCCOP(=O)(OCCCC)OP(=O)(O)OP(=O)(O)CO[C@H](C)Cn1cnc2c(N)ncnc21 | > 41.7 days | > 39 | 4270 nM | 9.7 min | 1220 nM | > 100 µM | 2540 nM | – | –
CCCCCCCCCCCCCCCCCCOP(=O)(OCc1ccc(OC(=O)CCCCCC)cc1)OP(=O)(O)OP(=O)(O)CO[C@H](C)Cn1cnc2c(N)ncnc21 (stereo partly specified) | – | > 256 | 6960 nM | 18.1 min | 10300 nM | > 100 µM | 390 nM | 114 min | t1/2 [15]: 111 h
CCCCCCCCCCCCCCCCCCOP(=O)(OCCCCCCCC)OP(=O)(O)OP(=O)(O)CO[C@H](C)Cn1cnc2c(N)ncnc21 (stereo partly specified) | 8.62 days | 447 | 160 nM | 16.6 min | 50 nM | 44.7 µM | 100 nM | > 480 min | –
CCCCCCCCCCCCCCCCCCOP(=O)(OCc1ccc(OC(=O)CC)cc1)OP(=O)(O)OP(=O)(O)CO[C@H](C)Cn1cnc2c(N)ncnc21 (stereo partly specified) | – | 762 | 390 nM | 16.8 min | 120 nM | 51.1 µM | 67 nM | 156 min | t1/2 [15]: 72 h
CCCCCCCCCCCCCCCCCCP(=O)(OCCCCCCCC)OP(=O)(O)OP(=O)(O)CO[C@H](C)Cn1cnc2c(N)ncnc21 (stereo partly specified) | > 20.8 days | 882 | 640 nM | 16.3 min | 140 nM | 48.5 µM | 55 nM | > 480 min | degraded at 600 h [16]: 43%; degraded at 500 h [17]: 36%
CCCCCCCCCCCOP(=O)(OCc1ccc(OC(=O)CCCCCCCC)cc1)OP(=O)(O)OP(=O)(O)CO[C@H](C)Cn1cnc2c(N)ncnc21 (stereo partly specified) | – | > 185 | 1230 nM | – | 620 nM | > 100 µM | 540 nM | – | –
CCCCCCCCCCCCCCCCCCOP(=O)(OCc1ccc(OC(=O)CCCCCCCC)cc1)OP(=O)(O)OP(=O)(O)CO[C@H](C)Cn1cnc2c(N)ncnc21 (stereo partly specified) | – | > 322 | 450 nM | 19.1 min | 770 nM | > 100 µM | 310 nM | 210 min | t1/2 [15]: 24 h; t1/2 [18]: 129 min
CC(C)OC(=O)OCOP(=O)(CO[C@H](C)Cn1cnc2c(N)ncnc21)OCOC(=O)OC(C)C.O=C(O)/C=C/C(=O)O [TENOFOVIR DISOPROXIL FUMARATE] | 1.16 days | > 1430 | 13 nM | 10.1 min | 3 nM | > 5 µM | 3 nM | – | half-life [5]: 10 min; half-life [6]: 10 min
CCCCCCCCCCCOP(=O)(O)OP(=O)(O)OP(=O)(O)CO[C@H](C)Cn1cnc2c(N)ncnc21 | – | > 21 | 5270 nM | 12.5 min | 5550 nM | > 100 µM | 4620 nM | – | Activity [19]: Active; Activity [20]: Active; Activity [4]: inactive; Activity [21]: Active; Activity [2]: inactive; inhibition [22]: Active; inhibition [23]: Active; Activity [24]: Active
CCCCCCCCCCCC(=O)Oc1ccc(COOP(=O)(O)OP(=O)(O)OP(=O)(O)CO[C@H](C)Cn2cnc3c(N)ncnc32)cc1 | – | > 333 | 460 nM | – | 230 nM | > 100 µM | 300 nM | – | –
C[C@H](Cn1cnc2c(N)ncnc21)OCP(=O)(O)O [TENOFOVIR ANHYDROUS] | > 41.7 days | > 113 | 2080 nM | 6.6 min | 1760 nM | > 100 µM | 880 nM | – | Activity [1]: inactive; Activity [2]: inactive; Activity [3]: Active
CCCCCCCCCCCCOP(=O)(OCCCCCCCCCCCC)OP(=O)(O)OP(=O)(O)CO[C@H](C)Cn1cnc2c(N)ncnc21 | 9.17 days | 688 | 61 nM | 15.6 min | 35 nM | 44.7 µM | 65 nM | > 1200 min | half-life [25]: > 4.17 days
CCCCCCCCCCCCCCCCCCP(=O)(OCCCCCCCC)OP(=O)(O)CO[C@H](C)Cn1cnc2c(N)ncnc21 (stereo partly specified) | 1.1 days | 2050 | 73 nM | 20.1 min | 32 nM | 45.2 µM | 22 nM | > 480 min | –
